{"source": "patent US11053175B2", "about": "“Thioether compounds as nitrification inhibitors” (BASF SE, priority 2015, dated 2021)", "data": [{"test_system": "nitrification in soil", "experiment": "Inhibition of nitrification in soil (48 well plate, ammonium sulfate, colour reaction read at 540 nm)", "format": "cell-based", "details": "72 h, dose of 10 ppm; soil, up to 72 hrs at room temperature; control DMSO only; best value obtained; read-out: IN (best inhibition value, inhibition of nitrification = 100 - % activity compared to control)", "experimental": "(§1) The compounds of the invention have been tested as follows in terms of the inhibition of nitrification: Soil was sampled fresh from a field (e.g. Limburgerhof), dried and sieved through a 500 μm sieve. Approximately 200 mg of soil were placed into each well of a 48 well plate. Compounds, or DMSO alone, were added at a concentration of 10 ppm, dissolved in 1% DMSO. 6 μmol ammonium sulfate was added per well as well as 4.8 mg NaClO3.\n(§2) Subsequently, the samples were incubated at room temperature for up to 72 hrs. After the incubation period 64 mg KCl were added and mixed. 25 μl of the supernatant were placed into a fresh plate and 260 μl of a color reaction solution (from Merck Nr 1.11799.0100) were added.\n(§3) Measurements were taken with a Tecan plate Reader at 540 nm wavelength.\n(§4) Inhibition is calculated as x=% activity compared to control, and converted to 100-x to give the value of inhibition, rather than activity.", "units": {"inhibition at 10 ppm": "%"}, "values": [{"smiles": "C#CCSC1=NCCN1/N=C/c1ccc(C)cc1", "note": "[Compound 1-3]", "inhibition at 10 ppm": 68}, {"smiles": "C#CCS/C(N)=N\\N=C\\c1ccc(F)cc1", "note": "[Compound 1-10]", "inhibition at 10 ppm": 59}, {"smiles": "C#CCSc1cnccn1", "note": "[Compound 1-21]", "inhibition at 10 ppm": 69}, {"smiles": "C#CCSc1nc2c(cc1C#N)CCC2", "note": "[Compound 1-12]", "inhibition at 10 ppm": 52}, {"smiles": "C#CCS(=O)(=O)CC#C", "note": "[Compound 1-8]", "inhibition at 10 ppm": 70}, {"smiles": "C#CCCS/C(C)=N\\O", "note": "[Compound 1-20]", "inhibition at 10 ppm": 48}, {"smiles": "C#CCSc1nnc(S)s1", "note": "[Compound 1-13]", "inhibition at 10 ppm": 51}, {"smiles": "C#CCSc1sc2ccccc2[n+]1C", "note": "[Compound 1-18]", "inhibition at 10 ppm": 44}, {"smiles": "C#CCSc1nc2ccsc2c(=O)n1C", "note": "[Compound 1-11]", "inhibition at 10 ppm": 55}, {"smiles": "C#CCSc1nccn1-c1ncc(C(F)(F)F)cc1Cl", "note": "[Compound 1-19]", "inhibition at 10 ppm": 42}, {"smiles": "C#CCSc1ncccn1", "note": "[Compound 1-6]", "inhibition at 10 ppm": 59}, {"smiles": "C#CCS/C(C)=N\\O", "note": "[Compound 1-9]", "inhibition at 10 ppm": 67}, {"smiles": "C#CCSC1=NNC(c2ccccn2)S1", "note": "(stereo not shown) [Compound 1-17]", "inhibition at 10 ppm": 46}, {"smiles": "C#CCS/C(N)=N\\N=C\\c1ccc(OC)cc1", "note": "[Compound 1-1]", "inhibition at 10 ppm": 42}, {"smiles": "C#CCSc1cnc2ccccc2n1", "note": "[Compound 1-23]", "inhibition at 10 ppm": 33}, {"smiles": "C#CC[S+]([O-])CC#C", "note": "[Compound 1-7]", "inhibition at 10 ppm": 72}]}, {"test_system": "nitrification in soil", "experiment": "Inhibition of nitrification in soil (48 well plate, ammonium sulfate, colour reaction read at 540 nm)", "format": "cell-based", "details": "dose of 10 ppm; soil, up to 72 hrs at room temperature; control DMSO only; best value obtained", "experimental": "as §1, §2, §3, §4", "units": {"IN (best inhibition value, inhibition of nitrification = 100 - % activity compared to control)": "%"}, "values": [{"smiles": "C#CCSc1sc2ccccc2[n+]1C.[Br-]", "note": "[Compound 1-22]", "IN (best inhibition value, inhibition of nitrification = 100 - % activity compared to control)": 42}]}, {"test_system": "nitrification in soil", "experiment": "Inhibition of nitrification in soil (48 well plate, ammonium sulfate, colour reaction read at 540 nm)", "format": "cell-based", "details": "reference compound, same conditions, dose of 10 ppm; read-out: IN (inhibition value, inhibition of nitrification)", "experimental": "as §1, §2, §3, §4", "units": {"inhibition at 10 ppm": "%"}, "values": [{"smiles": "C#Cc1ccccc1", "note": "[Phenylacetylene, phenylacetylene, reference compound]", "inhibition at 10 ppm": 7}]}, {"test_system": "nitrification in soil", "experiment": "Inhibition of nitrification in soil (48 well plate, ammonium sulfate, colour reaction read at 540 nm)", "format": "cell-based", "details": "dose of 3% a.i./NH, best value obtained, read-out: IN (best inhibition value, inhibition of nitrification = 100 - % activity compared to control)", "units": {"inhibition at 3 % strength": "%"}, "values": [{"smiles": "C#CC[S+]([O-])Cc1ccc(OC)cc1", "note": "(stereo not shown) [Compound 2-3]", "inhibition at 3 % strength": 23}, {"smiles": "C#CCSc1nnc(N)s1", "note": "[Compound 2-8]", "inhibition at 3 % strength": 38}, {"smiles": "C#CCS(=O)(=O)Cc1ccccc1", "note": "[Compound 2-4]", "inhibition at 3 % strength": 23}, {"smiles": "C#CC[S+]([O-])Cc1ccc(Cl)cc1", "note": "(stereo not shown) [Compound 2-5]", "inhibition at 3 % strength": 24}, {"smiles": "C#CCSc1sc2ccccc2[n+]1C", "note": "[Compound 2-1]", "inhibition at 3 % strength": 20}, {"smiles": "C#CCS/C(N)=N\\N=C\\c1ccc(N(C)C)cc1", "note": "[Compound 2-2]", "inhibition at 3 % strength": 20}, {"smiles": "C#CCSCC#C", "note": "[Compound 2-10]", "inhibition at 3 % strength": 97}, {"smiles": "C#CCSc1ccccc1", "note": "[Compound 2-9]", "inhibition at 3 % strength": 48}, {"smiles": "C#CCSCc1ccc(Cl)cc1", "note": "[Compound 2-6]", "inhibition at 3 % strength": 28}, {"smiles": "C#CCSCc1ccccc1", "note": "[Compound 2-7]", "inhibition at 3 % strength": 28}]}]}
